Source: patent US20190038556A1, “FORMULATIONS AND CARRIER SYSTEMS INCLUDING COMPOUND INTERACTIVE DOMAINS” (University of Pittsburgh - Of The Commonwealth System of …, priority 2012, published 2019)
≈ marks a conversion by molar mass, not a printed value. Like-named read-outs stand apart in the source and are kept apart here.

Key:
[1] = Screening of protected amino acid derivatives as solubilizers and inhibitor of crystallization for JP4-039; type: physicochemical
Description: In several studies, we compared a group of ε-Boc-lysine derivatives bearing various modifying groups on the α-NH2 position. […] FIG. 1 illustrates structures of various amino acid derivatives studied in solubility studies of JP4-039 in Table 3. […] In Table 3, the followings designations are used: U—Initially soluble but unstable after 5 min; V—forming vesicles; I—insoluble; and S—soluble.
1(b). Screening of protected amino acid derivatives as solubilizers and inhibitor of crystallization for JP4-039. α-acetyl-ε-Boc-lysine, α-iso-butoxycarbamoyl-ε-Boc-lysine were synthesized from α-NH2-ε-Boc-lysine (1 mmole) dissolved in 5 mL of saturated sodium bicarbonate solution by adding a 4-fold excess of acetyl anhydride or isobutyl chloroformate dissolved in 5 mL of THF over a period of 5 minutes, respectively. THF was removed from the reaction mixture, the remaining mixture was diluted with 50 mL of ethyl acetate. The organic phase was washed with 20 mL of saturated NaHCO3, saline, citric acid (0.5 M) and water sequentially. The organic phase was dried over anhydrous sodium sulfate, and the solvent was removed. The solid residues were recrystallized from ethyl acetate/hexanes mixture. These derivatives, together with a panel of commercially available amine protected derivatives of lysine, phenylalanine, and glycine were prepared as 1-100 mM solution or suspension in 0.1 M Na2HPO4 buffer. Meanwhile, 0.447 μg of JP4-039 dissolved in 5 μL of methanol was added to each well of a 96-well polystyrene plate. One hundred μL of amino acid solution/suspension were added to the methanol solution and mixed well. The physical status of the samples in each well was inspected visually for the physical appearance of brown crystals periodically over 2 h. Some samples were photographed under a microscope after 20 min.

physchem = test: physchem
Text: The exact mechanism for the protection of ECGC against oxygen in the form of complex is unknown.

[2] = for Physical form on hydration: 1 mg at 1 mg/ml
Text: Additional representative studies of paclitaxel PTX loaded onto a carrier agent including only a hydrophilic segment, region or domain conjugated to a drug-interactive segment, region or domain are set forth below.

[3] = Particle size measurement by laser dynamic light scattering; type: physicochemical; settings: for Size +/− SD: agent formulated with multi-chain PEGylated micelle-forming surfactant; for Particle Sizes w/o JP4-039: empty micelles
Description: 1(f). Particle size measurement. […] Samples were further diluted ten times in distilled water and sizes were measured by laser dynamic light scattering using a particle sizer (Zetasizer Nano ZS instrument, available from Malvern Instruments Ltd of Worcestershire, United Kingdom). Size measurement of emulsion particles were conducted using a Coulter N4 particle sizer after a 100-fold dilution in saline.

[4] = Critical micelle concentration (Eosin Y red shift); type: physicochemical
Description: 1(d). Critical micelle concentration (CMC). CMC was determined based on the red shift of the maximal absorption of Eosin Y when incorporated into more hydrophobic microenvironment in the core of micelle. Eosin Y solution was added to a final concentration of 1 mM to a series of surfactant solution prepared in distilled water and incubated for 30 minute at room temperature. OD542 nm was measured and plotted against surfactant concentration from which CMC values were estimated.

[5] = PTX loading and formulation stability of PTX/PEG-Fmoc2 mixed micelles (HPLC); type: physicochemical
Text: DLC (%)=[weight of drug used/(weight of polymer+drug used)]×100%
DLE (%)=(weight of loaded drug/weight of input drug)×100%
2(b)(iv). Preparation and biophysical characterization of PTX/PEG-Fmoc2 mixed micelles. Thin-film hydration method was utilized for preparation of PTX/PEG-Fmoc2 mixed nanomicelles. PEG-Fmoc2 and PTX in chloroform were well mixed in a glass tube at designated molar ratios. A thin film of carrier/drug mixture was generated through removal of the organic solvent by a gentle stream of nitrogen. The trace amount of solvent was further removed via vacuum for 2 h. Then the film was hydrated and suspended in DPBS by vortex to obtain a clear solution of PTX/PEG-Fmoc2 mixed nanomicelles. […]
The size distribution of PTX/PEG-Fmoc2 mixed nanomicelles was examined by dynamic light scattering (DLS) via a Malvern Zeta Nanosizer, and the morphology was observed by transmission electron microscopy (TEM) after negative staining. The CMC measurement was performed as reported before with pyrene as a fluorescence probe. To quantify PTX in the micelles, PTX was extracted by methanol, and detected by Waters Alliance 2695-2998 high-performance liquid chromatography (HPLC) system with a RP-18 column (250 mm×4.6 mm) equipped with a UV detector at 227 nm at room temperature. […] The drug loading capacity (DLC) and efficiency (DLE) were calculated as set forth above.

[6] = aqueous with cosolvent or surfactant or cyclodextrin
[7] = carrier Methoxy-PEG550-α-Fmoc-lysyl-ε-oleylamide (20 mg/ml)

| Solubility status of JP4-039 with amino acid derivative ([1]; molar ratio 5) | Solubility status of JP4-039 with amino acid derivative ([1]; molar ratio 50) | Solubility status of JP4-039 with amino acid derivative ([1]; molar ratio 10) | Solubility status of JP4-039 with amino acid derivative ([1]; molar ratio 20) | Solubility status of JP4-039 with amino acid derivative ([1]; molar ratio 30) | Solubility status of JP4-039 with amino acid derivative ([1]; molar ratio 40) | Compound | also measured |
| --- | --- | --- | --- | --- | --- | --- | --- |
| I | S | – | – | – | – | O=C(N[C@@H](Cc1ccccc1)C(=O)O)c1ccccc1 [Benz-Phe-OH] | – |
| – | – | – | – | – | – | C=CC1=C(C)c2cc3[nH]c(cc4nc(cc5[nH]c(cc1n2)c(C)c5CCC(=O)O)C(CCC(=O)O)=C4C)c(C)c3C=C [protoporphyrin IX] | Drug:carrier mole ratio (physchem): 1:6 to 1:10; solubility (physchem): ~1 µg/mL (≈ 1.78 µM); solubility (physchem; [6]): 500 µg/mL (≈ 889 µM) |
| – | – | – | – | – | – | COc1ccc2c(c1)c(CC(=O)O)c(C)n2C(=O)c1ccc(Cl)cc1 [Indomethacin] | Physical form on hydration [2, 7]: micelle solution |
| I | S | I | S | S | S | O=C(NCCCC[C@H](NC(=O)OCc1ccccc1)C(=O)O)OCc1ccccc1 [Di-(Cbz)-Lys-OH] | – |
| – | – | – | – | – | – | CC/C(=C(\c1ccccc1)c1ccc(OCCN(C)C)cc1)c1ccccc1 [Tamoxifen] | Stability of suspension upon hydration [2]: ~1 h; Physical form on hydration [2, 7]: micelle solution |
| I | S | I | I | I | S | CC(C)(C)OC(=O)NCCCC[C@H](NC(=O)OCc1ccccc1)C(=O)O [Cbz-(tBoc)-Lys-OH] | – |
| I | S | I | I | I | I | CC(C)(C)OC(=O)N[C@@H](CCCCNC(=O)OCc1ccccc1)C(=O)O [tBoc-(Cbz)-Lys-OH] | – |
| – | – | – | – | – | – | O=C([O-])c1c(Cl)c(Cl)c(Cl)c(Cl)c1-c1c2cc(I)c(=O)c(I)c-2oc2c(I)c([O-])c(I)cc12.[Na+].[Na+] [Rose Bengal] | Drug:carrier mole ratio (physchem): 2.5:1 to 2:1^; Soluble at (physchem): >5 mg/mL; solubility (physchem): freely; Size +/− SD [3]: 101.6 +/− 7 nm |
| – | – | – | – | – | – | Monomethoxy PEG2,000-α-Fmoc-ε-Oleoyl Lysine [lipopeptide 1] | CMC [4]: 5.0 µM |
| I | I | I | I | I | I | O=C(O)CCNC(=O)OCc1ccccc1 [Cbz-β-Ala-OH] | – |
| – | – | – | – | – | – | Monomethoxy PEG2,000-lysyl-(α-Fmoc-ε-oleoyl lysine)2 [lipopeptide 3] | Particle Sizes w/JP4-039 ([3]; JP4-039 loaded micelles): 94.2 +/− 1.7 nm; Particle Sizes w/o JP4-039 [3]: 106.7 +/− 2.5 nm; CMC [4]: 4.2 µM |
| I | S | S | S | S | S | Isb-(Cbz)-Lys-OH | – |
| – | – | – | – | – | – | COc1cc(/C=C/C(=O)CC(=O)/C=C/c2ccc(O)c(OC)c2)ccc1O [Curcumin] | Stability of suspension upon hydration [2]: ~1 h; Physical form on hydration [2, 7]: micelle solution; Physical form on hydration ([2]; carrier Methoxy-PEG1000-α-Fmoc-lysyl-ε-(α-Fmoc-ε-Boc lysine), 20 mg/ml): 1 mg at 1 mg/ml, viscous gel; Physical form on hydration ([2]; carrier Methoxy-PEG1000-α-Fmoc-lysyl-ε-(α-Fmoc-ε-Boc lysine), 20 mg/ml, listed as curcumin): suspension |
| I | S | I | I | I | I | CC(=O)N[C@@H](CCCCNC(=O)OCc1ccccc1)C(=O)O [Ace-(Cbz)-Lys-OH] | – |
| – | – | – | – | – | – | PEG5000-lysyl-(α-Fmoc-ε-oleic acid-lysine)2 [PEG-Fmoc-OA] | Stability in solution at maximum PTX loading [5]: several hours; PTX loading capacity (maximum) ([5]; w/w, stable complexes in aqueous solution): 15% |
| – | – | – | – | – | – | C=CC[C@@H]1/C=C(\C)C[C@H](C)C[C@H](OC)[C@H]2O[C@@](O)(C(=O)C(=O)N3CCCC[C@H]3C(=O)O[C@H](/C(C)=C/[C@@H]3CC[C@@H](O)[C@H](OC)C3)[C@H](C)[C@@H](O)CC1=O)[C@H](C)C[C@@H]2OC [FK506, tacrolimus] | Drug:carrier mole ratio (physchem): 1:1 to 1:1.5; solubility (physchem; [6]): 2500 µg/mL (≈ 3110 µM); Size +/− SD [3]: 62.3 +/− 9 nm |
| – | – | – | – | – | – | CC(C)c1onc(-c2c(Cl)cccc2Cl)c1COc1ccc(/C=C/c2cccc(C(=O)O)c2)c(Cl)c1 [GW4064] | Drug:carrier mole ratio (physchem): 2:1 to 1:1; Soluble at (physchem): >5 mg/mL; solubility (physchem): 0.002 µg/mL (≈ 0.00368 µM); Size +/− SD [3]: 35.4 +/− 12 nm |
| I | S | I | I | I | I | CC(=O)NCCCC[C@H](NC(=O)OCc1ccccc1)C(=O)O [CBz-(Ace)-Lys-OH] | – |
| – | – | – | – | – | – | Monomethoxy PEG5,000-lysyl-[lysyl-(α-Fmoc-ε-oleoyl lysine)2]2 [lipopeptide 4] | Particle Sizes w/o JP4-039 [3]: 132.1 +/− 8.5 nm; CMC [4]: 3.4 µM |

| Compound | Solubility status of JP4-039 with amino acid derivative ([1]; molar ratio 5) | Solubility status of JP4-039 with amino acid derivative ([1]; molar ratio 50) | Solubility status of JP4-039 with amino acid derivative ([1]; molar ratio 10) | Solubility status of JP4-039 with amino acid derivative ([1]; molar ratio 20) | Solubility status of JP4-039 with amino acid derivative ([1]; molar ratio 30) | Solubility status of JP4-039 with amino acid derivative ([1]; molar ratio 40) | also measured |
| --- | --- | --- | --- | --- | --- | --- | --- |
| CC(C)(C)OC(=O)NCCCC[C@H](NC(=O)OCC1c2ccccc2-c2ccccc21)C(=O)O [Fmoc-(tBoc)-Lys-OH, α-Fmoc-ε-tBoc-lysine] | S | S | S | S | S | S | Measured diameters of the majority of particles ([3]; prepared in 0.1 M KHCO3): 2-5 nm |
